Drawing on ChEMBL document CHEMBL5346982, “Disrupting Kaposi's Sarcoma-Associated Herpesvirus (KSHV) Latent Replication with a Small Molecule Inhibitor” (J Med Chem, 2023), this text covers inhibition and Activity for six compounds.

The subject of one assay is Human gammaherpesvirus 8. Nature of the assay: Inhibition of Kaposi's sarcoma-associated herpesvirus His-tagged oligomerization-deficient LANA DBD mutant (1008 to 1146 residues) assessed as disruption of LANA-DNA interaction at 250 uM preincubated with LBS1 representing 5'-Dy682-labeled double stranded DNA probe as substrate for 30 mins followed by compound addition and measured after 30 mins by Electrophoretic mobility shift assay.
Conditions: not given
As to `Cc1cc(-c2cccc(Cl)c2)ncc1-n1cc(-c2ccc(C(=O)O)cc2)nn1`, the inhibition is under 10%.

As for `Cc1cc(-c2ccccc2)ncc1-n1cc(-c2ccc(C(=O)O)cc2)nn1`, the inhibition was under 10%.

As to `COc1ccc(-c2cc(C)c(-n3cc(-c4ccc(C(=O)O)cc4)nn3)cn2)cn1`, the inhibition was under 10%.

On to `Cc1cc(-c2cccc(C(=O)O)c2)ncc1-n1cc(-c2ccc(C(=O)O)cc2)nn1`, for which the inhibition is under 10%.

For the compound `COc1cccc(-c2cc(C)c(-n3cc(-c4ccc(C(=O)O)cc4)nn3)cn2)c1`, the inhibition is under 10%.

In another assay the test system is Human gammaherpesvirus 8. Nature of the assay: Antiviral activity against Kaposi's sarcoma-associated herpesvirus infected in human HEK293 cells transfected with KSHV pGTR4:73 with four terminal repeats and LANA expression cassette containing plasmid assessed as inhibition of LANA-mediated replication of viral latent replication origin TR sequence at 15.625 to 62.5 uM incubated for 3 days by Southern blot analysis. It is filed as functional, organism-based. Conditions: dose 15.625-62.5 µM, time 3.0 day.
On to `COc1ccc(-c2cc(C)c(-n3cc(-c4ccc(C(=O)O)cc4)nn3)cn2)c(Cl)c1`, for which the Activity entry is “Dose-Dependent Effect”.

The inhibition is how much of the control response was suppressed.
